Normal boiling temperature and refractive index data for 3 molecules are collected here from the NIST ThermoML archive (doi:10.1021/je800087p).

For orientation: refractive index means the speed of light in vacuum divided by its phase velocity in the sample.

SMILES strings stand for the structures. Numbers after ± are expanded uncertainties.

For data set [1] the following is noted: Liquid; Ebulliometric method (Recirculating still).
A short description of data set [2]: refractive index (Na D-line) (dimensionless). As to conditions: 298.15 K; 101.3 kPa; Liquid; Standard Abbe refractometry.

Take `C1CCOCC1` [tetrahydropyran]: the Normal boiling temperature in data set [1] is 88.16 ± 0.1 °C. Moreover, the refractive index in data set [2] is reported as 1.41899 ± 0.00063.
As for `C1CCOC1` [tetrahydrofuran], in data set [1], the Normal boiling temperature was 66.1 ± 0.1 °C. The refractive index in data set [2] is listed as 1.40443 ± 0.0005.
On the same counts, the results for `CC(C)c1ccccc1` [isopropylbenzene] are 152.48 ± 0.1 °C and 1.48829 ± 0.00053.
